From the supplement of paper PMC11061612

What was measured:
Assay in all cases: Bliss excess, mean over the matrix (fraction); higher = more synergy
[1] = tested on: ALL-PO (B-Lymphoblastic Leukemia)
Procedure, shortened: (§1)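 Bliss excess equals the observed combination effect minus the expected value EA + EB − EA·EB, where EA and EB are the effects of each agent alone. Combination Emax is the second-highest inhibition within the matrix. Inhibition was scaled from CellTiter-Glo 2.0 luminescence, with 0 set by vehicle wells and 1 by blank wells, after 72 hours of two-drug dosing of cells plated in 1536-well plates.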

[2] = tested on: BE-13 (T-Lymphoblastic Leukemia)
Procedure, shortened: as §1

[3] = tested on: BFTC-909 (Kidney Carcinoma)
Procedure, shortened: as §1

BPH-1 (Non-Cancerous) = tested on: BPH-1 (Non-Cancerous)
Procedure, shortened: as §1

[4] = tested on: CAL-33 (Oral Cavity Carcinoma)
Procedure, shortened: as §1

[5] = tested on: ESS-1 (Other Solid Carcinomas)
Procedure, shortened: as §1

[6] = tested on: FTC-133 (Thyroid Gland Carcinoma)
Procedure, shortened: as §1

[7] = tested on: HH (T-Cell Non-Hodgkin's Lymphoma)
Procedure, shortened: as §1

[8] = tested on: Hs-746T (Gastric Carcinoma)
Procedure, shortened: as §1

[9] = tested on: HuCCT1 (Biliary Tract Carcinoma)
Procedure, shortened: as §1

[10] = tested on: HuH-7 (Hepatocellular Carcinoma)
Procedure, shortened: as §1

[11] = tested on: L-428 (Hodgkin's Lymphoma)
Procedure, shortened: as §1

[12] = tested on: LNZTA3WT4 (Low Grade Glioma)
Procedure, shortened: as §1

[13] = tested on: LS-123 (Colorectal Carcinoma)
Procedure, shortened: as §1

[14] = tested on: NCI-H209 (Small Cell Lung Carcinoma)
Procedure, shortened: as §1

[15] = tested on: NCI-H524 (Small Cell Lung Carcinoma)
Procedure, shortened: as §1

[16] = tested on: SNU-16 (Gastric Carcinoma)
Procedure, shortened: as §1

[17] = tested on: SW1573 (Lung Adenocarcinoma)
Procedure, shortened: as §1

[18] = tested on: TGBC1TKB (Biliary Tract Carcinoma)
Procedure, shortened: as §1

[19] = tested on: YAPC (Pancreatic Carcinoma)
Procedure, shortened: as §1

| SMILES | Bliss excess [1] | Bliss excess [2] | Bliss excess [3] | Bliss excess (BPH-1 (Non-Cancerous)) | Bliss excess [4] | Bliss excess [5] | Bliss excess [6] | Bliss excess [7] | Bliss excess [8] | Bliss excess [9] | Bliss excess [10] | Bliss excess [11] | Bliss excess [12] | Bliss excess [13] | Bliss excess [14] | Bliss excess [15] | Bliss excess [16] | Bliss excess [17] | Bliss excess [18] | Bliss excess [19] |
| --- | --- | --- | --- | --- | --- | --- | --- | --- | --- | --- | --- | --- | --- | --- | --- | --- | --- | --- | --- | --- |
| COc1cccc(OCCCN)c1-c1cc(Nc2cnc(C#N)cn2)n[nH]1 [Prexasertib] + C=CCn1c(=O)c2cnc(Nc3ccc(N4CCN(C)CC4)cc3)nc2n1-c1cccc(C(C)(C)O)n1 [AZD1775] (first compound max 1 µM, partner max 1 µM) | 0.0744 | 0.0317 | 0.11 | 0.115 | 0.117 | 0.0299 | -0.0182 | 0.0872 | -0.0572 | 0.0261 | 0.0469 | 0.0109 | 0.133 | -0.0296 | 0.0444 | 0.053 | 0.0756 | 0.0456 | 0.0068 | 0.0441 |
| COc1cccc(OCCCN)c1-c1cc(Nc2cnc(C#N)cn2)n[nH]1 [Prexasertib] + CCc1c2c(nc3ccc(O)cc13)-c1cc3c(c(=O)n1C2)COC(=O)[C@]3(O)CC [SN-38] (first compound max 1 µM, 7x7, partner max 0.3 µM) | -0.0336 | 0.0072 | 0.0075 | 0.011 | -0.0329 | -0.0183 | -0.0278 | 0.0727 | -0.0006 | -0.0044 | 0.122 | -0.0235 | 0.0266 | 0.0186 | 0.0053 | 0.0554 | 0.0333 | -0.0144 | 0.0365 | -0.0776 |
| COc1cccc(OCCCN)c1-c1cc(Nc2cnc(C#N)cn2)n[nH]1 [Prexasertib] + CN(C)CCCOc1ccc(-c2ccc3ncc4c(c3c2)n(C2CCOCC2)c(=O)n4C)cn1 [AZD0156] (first compound max 1 µM, 7x7, partner max 1 µM) | 0.0036 | -0.0338 | -0.0397 | 0.0118 | -0.0018 | -0.0668 | -0.0596 | -0.0001 | -0.0078 | -0.0357 | -0.0335 | -0.0144 | -0.0321 | -0.0387 | 0.0016 | -0.0435 | -0.0135 | -0.0129 | -0.0053 | -0.0799 |
| COc1cccc(OCCCN)c1-c1cc(Nc2cnc(C#N)cn2)n[nH]1 [Prexasertib] + C[C@@H]1COCCN1C2=NC(=NC(=C2)C3(CC3)[S@](=N)(=O)C)C4=C5C=CNC5=NC=C4 [AZD6738] (first compound max 1 µM, 7x7, partner max 10 µM) | 0.0584 | -0.0018 | 0.0417 | -0.015 | 0.0296 | 0.0056 | 0.0016 | -0.0053 | -0.033 | -0.0108 | 0.0392 | -0.0418 | -0.0422 | -0.0242 | -0.0214 | -0.0122 | -0.0058 | -0.0066 | -0.0064 | 0.0689 |
| COc1cccc(OCCCN)c1-c1cc(Nc2cnc(C#N)cn2)n[nH]1 [Prexasertib] + Cc1cc2ncnn2cc1Nc1ncc2c(n1)n(C1CCOCC1)c(=O)n2C [AZD7648] (first compound max 1 µM, 7x7, partner max 10 µM) | 0.0031 | 0.0364 | 0.0182 | 0.0161 | 0.0099 | -0.0296 | -0.0311 | -0.021 | -0.0512 | -0.0259 | -0.0199 | -0.0165 | -0.064 | -0.0141 | 0 | -0.0204 | -0.0059 | -0.0225 | -0.0747 | -0.0172 |
| COc1cccc(OCCCN)c1-c1cc(Nc2cnc(C#N)cn2)n[nH]1 [Prexasertib] + O=C(c1cc(Cc2n[nH]c(=O)c3ccccc23)ccc1F)N1CCN(C(=O)C2CC2)CC1 [Olaparib] (first compound max 1 µM, 7x7, partner max 10 µM) | -0.0194 | -0.0341 | -0.0109 | 0.0266 | -0.012 | 0.0054 | -0.0399 | -0.121 | -0.0198 | -0.0824 | -0.0527 | -0.0418 | -0.0274 | -0.0312 | -0.0442 | -0.0666 | -0.0417 | 0.001 | -0.0767 | -0.0491 |
| CCc1c2c(nc3ccc(O)cc13)-c1cc3c(c(=O)n1C2)COC(=O)[C@]3(O)CC [SN-38] + CN(C)CCCOc1ccc(-c2ccc3ncc4c(c3c2)n(C2CCOCC2)c(=O)n4C)cn1 [AZD0156] (first compound max 0.3 µM, 7x7, partner max 1 µM) | 0.0685 | -0.103 | 0.0225 | 0.0463 | 0.0579 | 0.0109 | -0.0031 | -0.0452 | -0.029 | -0.0337 | 0 | -0.0558 | 0.0092 | -0.0648 | -0.0073 | 0.0993 | 0.107 | 0.0139 | -0.006 | -0.0553 |
| Cn1cnc2c(F)c(Nc3ccc(Br)cc3Cl)c(C(=O)NOCCO)cc21 [Selumetinib] + C=CCn1c(=O)c2cnc(Nc3ccc(N4CCN(C)CC4)cc3)nc2n1-c1cccc(C(C)(C)O)n1 [AZD1775] (first compound max 10 µM, partner max 1 µM) | 0.0229 | -0.0423 | -0.0047 | 0.0209 | -0.0194 | -0.052 | -0.0465 | -0.0605 | -0.0275 | -0.0385 | -0.0509 | -0.0744 | -0.0443 | 0.0099 | -0.0211 | -0.0452 | 0.0433 | -0.0582 | 0.0366 | 0.016 |
| Cn1cnc2c(F)c(Nc3ccc(Br)cc3Cl)c(C(=O)NOCCO)cc21 [Selumetinib] + CC(C)n1c(=O)n(C)c2cnc3cc(F)c(-c4ccc(OCCCN5CCCCC5)nc4)cc3c21 [AZD1390] (first compound max 10 µM, 7x7, partner max 0.3 µM) | 0.0208 | -0.0283 | -0.024 | 0.026 | 0.0649 | -0.0044 | -0.034 | -0.0536 | -0.0257 | 0.0231 | -0.0205 | -0.0231 | -0.0324 | 0.0194 | -0.037 | -0.0286 | -0.0185 | -0.0796 | -0.0157 | -0.033 |
| Cn1cnc2c(F)c(Nc3ccc(Br)cc3Cl)c(C(=O)NOCCO)cc21 [Selumetinib] + CCN(CCO)CCCOc1ccc2c(Nc3cc(CC(=O)Nc4cccc(F)c4)[nH]n3)ncnc2c1 [AZD2811] (first compound max 10 µM, 7x7, partner max 1 µM) | -0.0029 | -0.0213 | -0.0093 | 0.0204 | -0.0215 | -0.0617 | -0.03 | -0.0825 | -0.0051 | 0.0066 | -0.0164 | 0.0174 | -0.0094 | 0.0199 | 0.0805 | -0.0101 | -0.0501 | -0.0605 | 0 | -0.0654 |
| Cn1cnc2c(F)c(Nc3ccc(Br)cc3Cl)c(C(=O)NOCCO)cc21 [Selumetinib] + C[C@@H]1COCCN1C2=NC(=NC(=C2)C3(CC3)[S@](=N)(=O)C)C4=C5C=CNC5=NC=C4 [AZD6738] (first compound max 10 µM, 7x7, partner max 10 µM) | 0.0391 | -0.0181 | -0.025 | 0.108 | 0.0115 | 0.024 | -0.0828 | -0.038 | 0.0382 | -0.0164 | -0.0221 | -0.0311 | -0.0661 | 0.0709 | -0.0403 | -0.0293 | 0.0038 | -0.0587 | -0.0031 | -0.0019 |
| CC(=O)Nc1cccc(-n2c(=O)n(C3CC3)c(=O)c3c(Nc4ccc(I)cc4F)n(C)c(=O)c(C)c32)c1 [Trametinib] + Cc1nc(-c2cn3c(n2)-c2ccc(-c4cnn(C(C)(C)C(N)=O)c4)cc2OCC3)n(C(C)C)n1 [Taselisib] (first compound max 1 µM, 7x7, partner max 10 µM) | 0.318 | -0.0123 | 0.182 | 0.0283 | 0.104 | 0.114 | -0.046 | 0.0868 | 0.0172 | 0.182 | 0.0875 | -0.0045 | 0.0829 | 0.0939 | -0.0014 | -0.112 | 0.257 | 0.0334 | 0.0385 | 0.246 |
| CC1(C)CCC(CN2CCN(c3ccc(C(=O)NS(=O)(=O)c4ccc(NCC5CCOCC5)c([N+](=O)[O-])c4)c(Oc4cnc5[nH]ccc5c4)c3)CC2)=C(c2ccc(Cl)cc2)C1 [Venetoclax] + C1CN(CCC1(C(=O)N[C@@H](CCO)C2=CC=C(C=C2)Cl)N)C3=NC=NC4=C3C=CN4 [Capivasertib] (first compound max 1 µM, 7x7, partner max 3 µM) | 0.0446 | -0.0684 | -0.0292 | -0.033 | 0.0084 | -0.0498 | -0.0473 | 0.0213 | -0.0705 | -0.0734 | -0.0537 | -0.0577 | -0.0297 | -0.0134 | -0.0005 | -0.0624 | -0.0496 | -0.0428 | -0.0535 | -0.0461 |
| CC1(C)CCC(CN2CCN(c3ccc(C(=O)NS(=O)(=O)c4ccc(NCC5CCOCC5)c([N+](=O)[O-])c4)c(Oc4cnc5[nH]ccc5c4)c3)CC2)=C(c2ccc(Cl)cc2)C1 [Venetoclax] + C=CCn1c(=O)c2cnc(Nc3ccc(N4CCN(C)CC4)cc3)nc2n1-c1cccc(C(C)(C)O)n1 [AZD1775] (first compound max 1 µM, partner max 1 µM) | 0.136 | 0.0227 | -0.0556 | -0.0548 | -0.0631 | 0.0835 | 0.0065 | 0.029 | -0.115 | -0.0281 | -0.0247 | -0.0298 | 0.0509 | -0.0165 | 0.107 | 0.0089 | -0.0478 | -0.0427 | -0.039 | -0.0356 |
| CC1(C)CCC(CN2CCN(c3ccc(C(=O)NS(=O)(=O)c4ccc(NCC5CCOCC5)c([N+](=O)[O-])c4)c(Oc4cnc5[nH]ccc5c4)c3)CC2)=C(c2ccc(Cl)cc2)C1 [Venetoclax] + CCN(CCO)CCCOc1ccc2c(Nc3cc(CC(=O)Nc4cccc(F)c4)[nH]n3)ncnc2c1 [AZD2811] (first compound max 1 µM, 7x7, partner max 1 µM) | 0.0129 | -0.0468 | -0.0289 | -0.0198 | -0.0261 | 0.0506 | 0.0192 | -0.0152 | -0.0383 | -0.0062 | -0.0133 | 0.0178 | 0.0218 | -0.0437 | 0.356 | -0.0074 | 0.0202 | -0.0575 | -0.0225 | -0.0103 |
